# According to US7235366B1 (priority 1993, dated 2007):
# Read-outs that look alike come from different tables or passages of the source. Residues, ends and D or L forms follow the SMILES beside them.
# Columns and labels:
# cloned mouse κ receptor = molecular target: T1, cloned mouse κ receptor (Mus musculus, UniProt P33534); experiment: biochemical; assay type: binding
# T1 construct: expressed in transfected cells
# cloned mouse δ receptor = molecular target: T2, cloned mouse δ receptor (Mus musculus, UniProt P32300); experiment: biochemical; assay type: binding
# T2 construct: expressed in transfected cells
# T2 sequence (P32300 whole entry): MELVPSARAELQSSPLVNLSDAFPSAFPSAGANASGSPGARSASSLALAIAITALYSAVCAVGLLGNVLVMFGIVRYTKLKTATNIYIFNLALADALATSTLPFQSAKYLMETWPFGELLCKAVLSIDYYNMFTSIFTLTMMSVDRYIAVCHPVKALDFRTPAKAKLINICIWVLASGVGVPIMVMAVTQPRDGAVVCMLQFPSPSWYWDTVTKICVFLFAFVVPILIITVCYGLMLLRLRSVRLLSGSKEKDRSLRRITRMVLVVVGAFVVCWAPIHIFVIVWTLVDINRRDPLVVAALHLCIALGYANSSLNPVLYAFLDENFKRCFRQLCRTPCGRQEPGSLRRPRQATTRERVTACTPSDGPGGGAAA
# cloned rat μ receptor = molecular target: T3, cloned rat μ receptor (Rattus norvegicus, UniProt P33535); experiment: biochemical; assay type: binding
# T3 construct: expressed in transfected cells; host or cells: COS-7 (transient)
# T3 sequence (P33535 whole entry): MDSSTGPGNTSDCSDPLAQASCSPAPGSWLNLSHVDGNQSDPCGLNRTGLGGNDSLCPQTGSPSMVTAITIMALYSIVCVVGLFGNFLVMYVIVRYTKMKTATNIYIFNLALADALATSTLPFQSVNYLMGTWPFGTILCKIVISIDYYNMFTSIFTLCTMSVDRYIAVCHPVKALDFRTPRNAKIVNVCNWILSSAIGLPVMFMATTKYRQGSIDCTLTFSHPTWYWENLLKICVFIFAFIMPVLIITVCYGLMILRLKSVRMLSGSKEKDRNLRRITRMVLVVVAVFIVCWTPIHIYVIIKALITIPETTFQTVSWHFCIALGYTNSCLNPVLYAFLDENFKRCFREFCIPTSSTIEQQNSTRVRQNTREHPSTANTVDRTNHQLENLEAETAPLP
# [1] = molecular target: T4, mouse delta opioid receptor aspartate 95 to asparagine mutant (Mus musculus, UniProt P32300, D95N); experiment: Binding to delta receptor mutant with aspartate 95 converted to asparagine, COS-7 cells
# T4 construct: expressed in transfected cells; host or cells: COS-7
# T4 sequence (P32300 whole entry D95N): as the sequence (P32300 whole entry) above, with D95N counted along it
# κ/δ2eloop chimera = assay type: binding
# MOP2 [2] = molecular target: T5, MOP2 (Mus musculus, UniProt P35377); assay type: cell-based
# T5 construct: expressed in transfected cells; host or cells: COS-7 (transient)
# T5 sequence (P35377 whole entry): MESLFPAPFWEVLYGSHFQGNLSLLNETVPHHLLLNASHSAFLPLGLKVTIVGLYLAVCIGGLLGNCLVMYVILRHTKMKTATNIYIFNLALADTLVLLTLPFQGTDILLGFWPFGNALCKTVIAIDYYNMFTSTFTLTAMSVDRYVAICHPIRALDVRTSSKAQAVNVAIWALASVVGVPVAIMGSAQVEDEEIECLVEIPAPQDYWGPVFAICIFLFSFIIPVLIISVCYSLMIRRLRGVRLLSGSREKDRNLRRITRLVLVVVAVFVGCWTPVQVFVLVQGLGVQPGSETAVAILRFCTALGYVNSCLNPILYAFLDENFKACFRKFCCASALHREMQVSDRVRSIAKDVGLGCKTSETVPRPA
# [3] = molecular target: T6, wild-type mouse delta opioid receptor (Mus musculus, UniProt P32300); experiment: biochemical; assay type: binding
# T6 construct: expressed in transfected cells; host or cells: COS-7 (transient, pCMV6c)
# T6 sequence (P32300 whole entry): as the sequence (P32300 whole entry) above
# [4] = molecular target: T7, H278N mutant mouse delta opioid receptor (Mus musculus, UniProt P32300, H278N); experiment: biochemical; assay type: binding
# T7 construct: expressed in transfected cells; host or cells: COS-7 (transient, pCMV6c)
# T7 sequence (P32300 whole entry H278N): as the sequence (P32300 whole entry) above, with H278N counted along it
# [5] = molecular target: T8, D128N mutant mouse delta opioid receptor (Mus musculus, UniProt P32300, D128N); experiment: biochemical; assay type: binding
# T8 construct: expressed in transfected cells; host or cells: COS-7 (transient, pCMV6c)
# T8 sequence (P32300 whole entry D128N): as the sequence (P32300 whole entry) above, with D128N counted along it
# MOP2 [6] = molecular target: T5, MOP2; assay type: binding
# [7] = molecular target: kappa 1-74/delta65-372 chimera (Mus musculus, UniProt P32300+P33534, A193I/A281G/D128E/D204G/D206V/DEL208-209/DEL216-217/DEL300-312/E203D/E218S/E297A/F225V/F314L/G197A/G198V/I133A/I135L/I177L/I191V/I194M/I237V/I243T/I250L/I284V/I285V/I294L/I85V/INS221Y/INS293[…]/K200Q/K254R/K274R/L173A/L184V/L196M/L224T/L275M/L295V/M112L/M226T/M90L/N122E/N268S/R263K/S123T/S188G/S192P/S211M/T110S/T247G/T288A/T321A/V108A/V118K/V129L/V201P/V205A/V232L/V239I/V282A/V83G/Y219P/Y313H)
# Sequence of kappa 1-74/delta65-372 chimera (P33534+P32300 fused with the stated changes): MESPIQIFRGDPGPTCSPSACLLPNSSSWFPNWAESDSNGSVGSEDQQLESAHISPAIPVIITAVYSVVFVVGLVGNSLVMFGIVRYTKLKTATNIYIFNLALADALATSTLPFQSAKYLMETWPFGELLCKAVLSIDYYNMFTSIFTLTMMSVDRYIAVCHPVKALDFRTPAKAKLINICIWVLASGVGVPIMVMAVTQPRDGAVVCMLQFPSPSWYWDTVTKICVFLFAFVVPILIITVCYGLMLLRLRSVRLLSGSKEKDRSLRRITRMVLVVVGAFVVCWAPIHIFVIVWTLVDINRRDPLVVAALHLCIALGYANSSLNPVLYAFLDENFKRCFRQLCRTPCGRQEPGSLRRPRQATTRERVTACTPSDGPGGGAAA
# [8] = molecular target: κ1-78/δ70-372 chimeric receptor (Mus musculus, UniProt P32300+P33534, A193I/A281G/D128E/D204G/D206V/DEL208-209/DEL216-217/DEL300-312/E203D/E218S/E297A/F225V/F314L/G197A/G198V/I133A/I135L/I177L/I191V/I194M/I237V/I243T/I250L/I284V/I285V/I294L/I85V/INS221Y/INS293VIVWTLVDINRRDP/K200Q/K254R/K274R/L173A/L184V/L196M/L224T/L275M/L295V/M112L/M226T/M90L/N122E/N268S/R263K/S123T/S188G/S192P/S211M/T110S/T247G/T288A/T321A/V108A/V118K/V129L/V201P/V205A/V232L/V239I/V282A/V83G/Y219P/Y313H); experiment: biochemical
# Sequence of κ1-78/δ70-372 chimeric receptor (P33534+P32300 fused with the stated changes): as above
# [9] = molecular target: T9, cloned human μ opioid receptor (Homo sapiens, UniProt P35372); assay type: binding
# T9 construct: This fragment includes the entire coding region of the human μ opioid receptor; expressed in transfected cells; host or cells: COS-7 (transient, pcDNA3)
# T9 sequence (P35372 whole entry, the tested form may be a part): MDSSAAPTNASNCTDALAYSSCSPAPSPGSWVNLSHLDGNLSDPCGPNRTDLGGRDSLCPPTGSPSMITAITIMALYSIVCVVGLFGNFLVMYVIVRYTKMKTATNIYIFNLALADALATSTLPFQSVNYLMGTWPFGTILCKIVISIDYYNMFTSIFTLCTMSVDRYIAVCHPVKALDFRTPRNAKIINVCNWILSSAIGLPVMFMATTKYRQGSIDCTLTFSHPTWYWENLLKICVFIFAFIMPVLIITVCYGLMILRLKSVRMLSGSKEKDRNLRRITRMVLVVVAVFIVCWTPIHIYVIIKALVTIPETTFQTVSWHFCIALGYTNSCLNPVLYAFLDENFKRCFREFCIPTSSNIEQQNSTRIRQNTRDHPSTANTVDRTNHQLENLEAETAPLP
# [10] = molecular target: T10, cloned rat μ opioid receptor (Rattus norvegicus, UniProt P33535); assay type: binding
# T10 construct: expressed in transfected cells; host or cells: COS-7 (transient)
# T10 sequence (P33535 whole entry): as the sequence (P33535 whole entry) above
# [11] = read-out: Binding potencies (Ki-nM) κ RECEPTOR [^3H] U-69, 593
# [12] = read-out: Binding potencies (Ki-nM) δ RECEPTOR [^3H] naltrindole
# [13] = read-out: Binding potencies (Ki-nM) μ RECEPTOR [^3H] DAMGO
# [14] = Binding potencies (Ki-nM) μ RECEPTOR [^3H] DAMGO
# T1 sequence (P33534 whole entry): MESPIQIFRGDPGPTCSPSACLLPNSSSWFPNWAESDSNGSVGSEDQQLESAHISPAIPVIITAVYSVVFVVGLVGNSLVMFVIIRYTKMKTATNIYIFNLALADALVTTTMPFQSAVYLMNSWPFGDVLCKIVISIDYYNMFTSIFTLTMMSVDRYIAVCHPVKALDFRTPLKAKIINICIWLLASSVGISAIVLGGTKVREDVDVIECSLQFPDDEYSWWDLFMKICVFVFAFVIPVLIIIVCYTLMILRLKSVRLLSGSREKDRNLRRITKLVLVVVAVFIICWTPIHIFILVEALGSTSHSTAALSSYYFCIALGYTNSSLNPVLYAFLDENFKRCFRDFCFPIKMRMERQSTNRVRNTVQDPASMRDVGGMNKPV
molecule,measurement,setting,value
"O=C1/C(=C/c2ccccc2)C[C@@]2(O)[C@H]3Cc4ccc(O)c5c4[C@@]2(CCN3CC2CC2)[C@H]1O5 [BNTX, 7-Benyllidenenaltrexone]",Ki,cloned mouse κ receptor; [11],55 nM
same,Ki,cloned mouse δ receptor; [12],0.66 nM
same,Ki,cloned rat μ receptor; [13],18 nM
same,Affinity of aspartate 95 mutant and wild-type delta receptors compared,[1],similar
"C[C@@H](O)[C@H](NC(=O)[C@H]1NC(=O)[C@H]([C@@H](C)O)NC(=O)[C@H](CCCN)NC(=O)[C@@H](Cc2c[nH]c3ccccc23)NC(=O)[C@H](Cc2ccc(O)cc2)NC(=O)[C@@H](NC(=O)[C@H](N)Cc2ccccc2)CSSC1(C)C)C(N)=O [CTOP, D-Phe-Cys-Tyr-D-Trp-Orn-Thr-Pen-Thr-NH2]",Ki,cloned mouse κ receptor,> 1000 nM
same,Ki,cloned mouse δ receptor,> 1000 nM
"CC(C)C[C@H](NC(=O)[C@H](Cc1ccccc1)NC(=O)CNC(=O)[C@@H](CO)NC(=O)[C@@H](N)Cc1ccc(O)cc1)C(=O)N[C@H](C(=O)O)[C@@H](C)O [DSLET, [D-Ser^2, Leu^5]enkephalin-Thr^6]",Ki,cloned rat μ receptor; [14],39 nM
CN1CC[C@@]23CCCC[C@@H]2[C@@H]1Cc1ccc(O)cc13 [Dextrorphan],Ki,cloned mouse κ receptor,> 1000 nM
same,Ki,cloned mouse δ receptor,> 1000 nM
CC[C@H](C)[C@H](NC(=O)[C@H](CCCNC(=N)N)NC(=O)[C@H](CCCNC(=N)N)NC(=O)[C@H](CC(C)C)NC(=O)[C@H](Cc1ccccc1)NC(=O)CNC(=O)CNC(=O)[C@@H](N)Cc1ccc(O)cc1)C(=O)N[C@@H](CCCNC(=N)N)C(=O)N1CCC[C@H]1C(=O)N[C@@H](CCCCN)C(=O)N[C@@H](CC(C)C)C(=O)N[C@@H](CCCCN)C(=O)N[C@@H](Cc1c[nH]c2ccccc12)C(=O)N[C@@H](CC(=O)O)C(=O)N[C@@H](CC(N)=O)C(=O)N[C@@H](CCC(N)=O)C(=O)O [Dynorphin],Binding to the κ/δ2eloop chimera,κ/δ2eloop chimera,did not bind
CC[C@]12CCN(CC3CC3)[C@H](C(=O)c3ccc(O)cc31)[C@@H]2C [Ethylketocyclazocine],Ki,cloned mouse δ receptor,101 nM
same,Ki,cloned rat μ receptor,3.1 nM
same,"Effect on forskolin-stimulated cAMP formation, MOP2",MOP2 [2],no effect
"CN(C(=O)Cc1ccc(Cl)c(Cl)c1)C(CN1CCCC1)c1cccc(OCC(=O)O)c1 (centres unmarked) [ICI 204, 448]",Ki,cloned mouse κ receptor; [11],0.71 nM
same,Ki,cloned mouse δ receptor; [12],> 1000 nM
same,Ki,cloned rat μ receptor; [13],> 1000 nM
CN1CC[C@]23CCCC[C@H]2[C@H]1Cc1ccc(O)cc13 [Levorphanol],Ki,cloned mouse κ receptor,6.5 nM
same,Ki,[3],187 nM
same,Ki,[4],2.8 nM
same,Ki,cloned mouse δ receptor,5 nM
same,Ki,[5],4380 nM
same,"Effect on forskolin-stimulated cAMP formation, MOP2",MOP2 [2],no effect
Oc1ccc2c3c1O[C@H]1c4oc5ccccc5c4C[C@@]4(O)[C@@H](C2)N(CC2CC2)CC[C@]314 [NTB],Ki,cloned mouse κ receptor; [11],13 nM
same,Ki,"[3]; read-out: Potencies of Antagonist binding, Wild-type (Ki values in nM)",0.04 nM
same,Ki,"[4]; read-out: Potencies of Antagonist binding, H278N mutant (Ki values in nM)",0.03 nM
same,Ki,cloned mouse δ receptor; [12],0.013 nM
same,Ki,"[5]; read-out: Potencies of Antagonist binding, D128N mutant (Ki values in nM)",0.07 nM
same,Ki,cloned rat μ receptor; [13],12 nM
same,Affinity of aspartate 95 mutant and wild-type delta receptors compared,[1],similar
"CN1CC[C@]23c4c5ccc(O)c4O[C@H]2C(=O)C2(Cc4ccccc4C2)C[C@@]3(O)[C@H]1C5 [SIOM, 7-spiroindino-oxymorphone]",Ki,cloned mouse κ receptor; [11],> 1000 nM
same,Ki,"[3]; read-out: Potencies of Agonists to Bind, Wild-type (Ki values in nM)",46 nM
same,Ki,"[4]; read-out: Potencies of Agonists to Bind, H278N mutant (Ki values in nM)",1.8 nM
same,Ki,"[5]; read-out: Potencies of Agonists to Bind, D128N mutant (Ki values in nM)",1220 nM
same,Ki,cloned rat μ receptor; [13],33 nM
C[C@@H](NC(=O)[C@@H](N)Cc1ccc(O)cc1)C(=O)NCC(=O)N(C)[C@@H](Cc1ccccc1)C(=O)NCCO [[^3H]DAMGO],Specific binding of radioligand to MOP2,MOP2 [6],did not bind specifically
Oc1ccc2c3c1O[C@H]1c4[nH]c5ccccc5c4C[C@@]4(O)[C@@H](C2)N(CC2CC2)CC[C@]314 [[^3H]naltrindole],Kd,[3],0.6 ± 0.2 nM
same,Specific binding of radioligand to MOP2,MOP2 [6],did not bind specifically
same,Kd,[4],0.2 ± 0.1 nM
same,Kd,cloned mouse δ receptor,0.18 nM
same,Kd,[5],1.3 ± 0.6 nM
same,Binding of radioligand to the kappa 1-74/delta65-372 chimera,[7],potently bound
CC(C)=CCN1CCC2(C)c3cc(O)ccc3CC1C2C (centres unmarked) [^3H-pentazocine],Specific binding of radioligand to MOP2,MOP2 [6],did not bind specifically
COc1ccc2c3c1O[C@H]1[C@@H](O)C=C[C@H]4[C@@H](C2)N(C)CC[C@@]341 [codeine],Ki,cloned mouse κ receptor,> 1000 nM
same,Ki,cloned mouse δ receptor,> 1000 nM
same,"Effect on forskolin-stimulated cAMP formation, MOP2",MOP2 [2],no effect
CC[C@H](C)[C@H](NC(=O)[C@H](C)NC(=O)[C@H](CC(N)=O)NC(=O)[C@H](CCCCN)NC(=O)[C@H](Cc1ccccc1)NC(=O)[C@H](CC(C)C)NC(=O)[C@@H](NC(=O)[C@@H](NC(=O)[C@H](CC(C)C)NC(=O)[C@@H]1CCCN1C(=O)[C@@H](NC(=O)[C@H](CCC(N)=O)NC(=O)[C@H](CO)NC(=O)[C@H](CCCCN)NC(=O)[C@H](CCC(=O)O)NC(=O)[C@H](CO)NC(=O)[C@@H](NC(=O)[C@H](CCSC)NC(=O)[C@H](Cc1ccccc1)NC(=O)CNC(=O)CN)[C@@H](C)O)[C@@H](C)O)C(C)C)[C@@H](C)O)C(=O)N[C@H](C(=O)N[C@@H](CCCCN)C(=O)N[C@@H](CC(N)=O)C(=O)N[C@@H](C)C(=O)N[C@@H](Cc1ccc(O)cc1)C(=O)N[C@@H](CCCCN)C(=O)N[C@@H](CCCCN)C(=O)NCC(=O)N[C@@H](CCC(=O)O)C(=O)O)[C@@H](C)CC [des-Tyr^1-β-endorphin] (H-GGFMTSEKSQTPLVTLFKNAIIKNAYKKGE-OH; N-terminus and C-terminus assumed),Ki,cloned mouse κ receptor; [11],> 1000 nM
same,Ki,cloned mouse δ receptor; [12],> 1000 nM
same,Ki,cloned rat μ receptor; [13],> 1000 nM
CCC(=O)C(CC(C)N(C)C)(c1ccccc1)c1ccccc1 (centres unmarked) [methadone],"Effect on forskolin-stimulated cAMP formation, MOP2",MOP2 [2],no effect
NC(=O)[C@@H]1CCCN1C(=O)[C@H](Cc1ccccc1)NC(=O)[C@@H]1CCCN1C(=O)[C@@H](N)Cc1ccc(O)cc1 [morphiceptin] (H-YPFP-NH2),Ki,cloned mouse κ receptor,> 1000 nM
same,Ki,cloned mouse δ receptor,> 1000 nM
same,Ki,cloned rat μ receptor; Affinities for the cloned μ receptor,10 to 100 nM
same,Ki,cloned rat μ receptor; [14],56 nM
CN1CC[C@]23c4c5ccc(O)c4O[C@H]2[C@@H](O)C=C[C@H]3[C@H]1C5 [morphine],"Effect on forskolin-stimulated cAMP formation, MOP2",MOP2 [2],no effect
C=CCN1CC[C@]23c4c5ccc(O)c4O[C@H]2[C@@H](O)C=C[C@H]3[C@H]1C5 [nalorphine],Ki,cloned mouse κ receptor,1.1 nM
same,Ki,cloned rat μ receptor,0.97 nM
Oc1ccc2c3c1O[C@H]1c4[nH]c5ccccc5c4C[C@@]4(O)[C@@H](C2)N(CC2CC2)CC[C@]314 [naltrindole],Ki,cloned mouse κ receptor,66 nM
same,Ki,[3],1.4 nM
same,Ki,[4],0.5 nM
same,IC50,[8],0.25 nM
same,Ki,[5],5.6 nM
same,Affinity of aspartate 95 mutant and wild-type delta receptors compared,[1],similar
"Oc1ccc2c3c1O[C@H]1c4[nH]c5c(c4C[C@@]4(O)[C@@H](C2)N(CC2CC2)CC[C@]314)C[C@@]1(O)[C@H]2Cc3ccc(O)c4c3[C@@]1(CCN2CC1CC1)[C@H]5O4 [nor-BNI, nor-binaltorphimine]",Ki,cloned mouse κ receptor,0.027 nM
CC(C)=CCN1CCC2(C)c3cc(O)ccc3CC1C2C (centres unmarked) [pentazocine],Ki,cloned mouse δ receptor,31 nM
same,Ki,cloned rat μ receptor,5.7 nM
"COC(=O)/C=C/C(=O)N[C@@H]1CC[C@@]2(O)[C@H]3Cc4ccc(O)c5c4[C@@]2(CCN3CC2CC2)[C@H]1O5 [β-FNA, β-funaltrexamine]",Ki,cloned mouse κ receptor; [11],2.8 nM
same,Ki,[9]; read-out: Binding potencies (Ki-nM) for the cloned human μ opioid receptor [^3H] DAMGO,0.29 nM
same,Ki,cloned mouse δ receptor; [12],48 nM
same,Ki,cloned rat μ receptor; [13],0.33 nM
D-Ala^2-deltorphin II,"Binding to the cloned human receptor (inhibition of [3H]DAMGO binding), words",[9],did not bind
Dynorphin A (1–8),Binding to the κ/δ2eloop chimera,κ/δ2eloop chimera,did not bind
Dynorphin A (1–17),Binding to the κ/δ2eloop chimera,κ/δ2eloop chimera,did not bind
pertussis toxin [PTX],Decrease of specific [3H]DAMGO labelling of the rat μ receptor,[10],42+/−5%
β-Endorphin (human),"Effect on forskolin-stimulated cAMP formation, MOP2",MOP2 [2],no effect
